Measured values as given in patent US20050059977A1, “Monitoring circadian activity” (priority 2003, published 2005).

Columns and labels:
NAT = assay: Pineal in situ hybridization for NAT RNA after drug infusion by microdialysis; type: in vivo, rat
Description: (§1) Pineal microdialysis was carried out as follows. Immediately before sampling, the rat was anesthetized with halothane briefly, the stylet (or dummy probe) was replaced with a microdialysis proble (CMA12, 20 KD cut off, membrane length 4 mm)(CMA Microdialysis, N. Chelmsford, Mass.) and fixed with plastic glue. The dialysis probe was continuously infused via the microbore PEEK tubing (0.65 mm OD, 0.12 mm ID) at a flow rate of 2 ul/min with artificial CSF (Harvard, Holliston, Mass.). Samples were collected at 10 minutes intervals via the PEEK tube into a 20 ul loop of Pollen 8 automatic injector (BAS, West Lafayette, Ind.), which was on-line with the HPLC system. The sample loop was set to be retained in the load position during the 10 minute cycles and was automatically switched to the injection positions briefly, after which the cycle was repeated. The rats were linked to the apparatus for dialysis through a quartz dual channel swivel (Harvard/Instech, Boston, Mass.) to prevent the tubing from entanglement. All pharmacological agents with molecular weights less than 6,0000 Daltons were delivered to the pineal through the microdialysis tubing. All drugs were infused after dissolving in artificial CSF solution at final concentrations indicated and for the duration described in the figure legends. […]

pineal gland = assay: In vivo pineal microdialysis with drug infusion through the dialysis membrane; on-line HPLC of melatonin and serotonin (5-HT) secretion; design: species or system rat
Description: Adult Sprague Dawley male rats (220-225 g) were house at 20-25° C. with lights on at 11 am (LD 14:10). Food and were available ad libitum throughout the experiment. Illumination was supplied by white fluorescent lamps (600 lux at cage level). Rats were placed in the LD cycles for at least 2 weeks before the start of surgery.
The animals were deeply anesthetized with a combination of Ketamine (10 mg/ml, 0.5 ml/100 g weight, i.p.) and Xylazine (2 mg/ml, 0.5 ml/100 g weight, i.p.). The animals' heads were shaved and positioned in a stereotaxic instrument. A longitudinal incision (approximately 2.5 cm) is made along the midline in the skin from anterior (level of the eyes) to posterior (base of the skull). The sagittal and lambdoid sutures were then exposed by scraping away the periosteum to the temporal muscles. […] The dura was exposed after grinding away the top bone, which was removed using iris forceps after making a cross cut with a scalpel blade (FIG. 1B). […] Bleeding was controlled with cotton wool pledget, or flushed with water and suctioned. Three stainless steel screws were placed nearby in the parietal and frontal bones to serve as anchors. After the animal's head was repositioned 30 degrees downward, the dura matter below the confluence of sinuses was then lifted 5 mm with a hook fixed to the stereotaxic frame (FIG. 1C). The dorsal cerebellum was then pressed downward with a glass blunt tube to expose the pineal gland. The tentorium cerebelli which covers the posterior surface of the pineal and connects to the confluence of the sinuses, was then carefully reflected to visualize the pineal with a micro sharp hook, while the bleeding around the pineal was flushed and suctioned. The pineal vein is visible in the midline of the pineal posterior surface (FIG. 1D) which divides the pineal gland into two parts and drains it to the confluence of the sinuses. The tip of the guide cannula (CMA Microdialysis, N. Chelmsford, Mass.) was then positioned adjacent to either side of the exposed pineal before the skull was closed with dental cement. The rats were allowed to recover for 24 hours before experimentation.
as §1, with “entanglement.” for “entanglement. All pharmacological agents with molecular weights less than 6,0000 Daltons were delivered to the pineal through the microdialysis tubing. All drugs were infused after dissolving in artificial CSF solution at final concentrations indicated and for the duration described in the figure legends.”
The analytical condition for the simultaneous detection of 5-HT/NAS/melatonin was based on Drijffiout et al. (J. Neurochem. 61: 936-942 (1993)) with minor modifications. A Shimadzu pump (Shimadzu, Columbia, USA) was used in conjunction with a Shimadzu fluorescence detector (FD, excitation: 280 nm, emission: 345 nm). […]

[1] = ISO 1 uM infused into pineal for 2.5 hours during the day (14:30 to 17:00), days 7-10 of microdialysis, single rat
[2] = dibutyryl cAMP 10 mM infused through the microdialysis tube during the day

| SMILES | NAT RNA expression in pineal sections (in situ hybridization) (NAT; ISO 1 uM infused through dialysis membrane during the day, 12th day of microdialysis, n=5 rats) | effect on serotonin (5-HT) output as melatonin output increases (pineal gland; [1]) | time after ISO treatment at which melatonin reaches a maximum (pineal gland; [1]) [h] | time after ISO withdrawal within which melatonin decreases (pineal gland; [1]) [h] | time after infusion at which melatonin levels begin to increase (pineal gland; [1]) [h] | NAT gene induction in pineal sections (in situ hybridization) (NAT; [2]) | melatonin production (pineal gland; [2]) |
| --- | --- | --- | --- | --- | --- | --- | --- |
| CC(C)NCC(O)c1ccc(O)c(O)c1 (stereo not shown) [ISO, Isoprenaline] | restricted to the region surrounding the probe membrane | decreases in a perfectly inverse manner | 2 | ≤ 1 | 1 |  |  |
| CCCC(=O)Nc1ncnc2c1ncn2[C@@H]1O[C@@H]2COP(=O)(O)O[C@H]2[C@H]1OC(=O)CCC [dibutyryl-cAMP] |  |  |  |  |  | NAT gene induction is detected | activated |
